In patent US12466814B2, “Sterically shielded heptamethine cyanine dyes” (UNIVERSITY OF NOTRE DAME DU LAC, priority 2020, dated 2025):
Values joined by “and” are separate entries in the source; they are usually repeats but may differ in a detail not shown here. Equal values may be shown once. Marks after values point to notes of the source that are not given here.

Columns and labels:
[1] = Quantum yield and fluorescence brightness relative to UL766; format: physicochemical
Excerpt: The fluorescence spectrum of each solution was obtained with excitation at 730 nm, and the integrated area was used in the quantum yield calculation by the following equation:
[formula] where η is the refractive index of the solvent, I is the integrated fluorescence intensity, and A is the absorbance at a chosen wavelength. […]

[2] = Antibody conjugate absorbance and fluorescence; format: physicochemical; conditions: value used in degree of labeling calculation
Protocol: Antibody Conjugate Absorbance. Absorbance spectra of goat IgG antibody bioconjugates were collected in buffer B (575 mM NaCl, 37.5 mM NaH2PO4 and 0.75 mM EDTA in water, pH 7.5) using Implen NanoPhotometer NP80. Spectra were normalized to absorbance at 280 nm.
Antibody Conjugate Fluorescence. […] The fluorescence emission spectra were divided by the fluorescence emission intensity at 355 nm (ex: 280 nm, slit width: 2 nm) to obtain corrected spectra that accounts for variations in antibody concentration.

[3] = Dye self-aggregation by absorption/excitation spectra; format: physicochemical; conditions: in water / aqueous media, absorption spectra
[4] = Water solubility and storage of aqueous stock solutions; format: physicochemical; conditions: 1 mM in water
[5] = Photostability, Xenon lamp irradiation; format: physicochemical
Protocol: FIG. 2. Two separate photostability studies. (a) Lamp irradiation: Four separate cuvettes, each containing 1 μM dye in PBS buffer, pH 7.4, were irradiated by a 150 W Xenon lamp with a 620 nm long-pass filter. The plot of normalized dye absorbance versus time was fit to a one-phase exponential decay. […] The length scale bar on each NIR fluorescence image is 1 cm.
Photostability Measurements. Lamp Irradiation: A solution of dye (1 μM) in PBS buffer, pH 7.4, was placed in a 1×1×4 cm^3 cuvette that was exposed to air and irradiated at a distance of 3 cm by a 150 W Xenon lamp with a 620 nm long-pass filter. An absorbance spectrum was recorded every 10 min. The normalized maximum absorbance of dye was plotted against time and fitted to a non-linear regression, one-phase exponential decay. […] A 1.5 mL vial containing the solution was irradiated at a distance of 3 cm by a 150 W Xenon lamp with a 620 nm long-pass filter.

[6] = molecular target: T1, bovine serum albumin (BSA) (Bos taurus, UniProt P02769); test: Albumin binding, dye fluorescence with and without BSA; conditions: PBS, presence and absence of BSA (2 μM)
T1 construct: a solution of bovine serum albumin (BSA, 2 μM) at 37° C; purchased

[7] = Absorption and emission spectral properties of dyes; format: physicochemical; conditions: for λabs max: monomer (m) band where an aggregate band is also listed
Protocol: General. Reagents and solvents were purchased from Sigma-Aldrich, VWR, Oakwood, Thermo Fisher and TCI and used without further purification unless stated otherwise. Anhydrous tetrahydrofuran was distilled with metal sodium and benzophenone. Column chromatography was performed using Biotage SNAP Ultra columns. ^1H, ^13C and ROESY NMR spectra were recorded on a Bruker 500 NMR spectrometer. Chemical shifts are presented in ppm and referenced by residual solvent peak. High-resolution mass spectrometry (HRMS) was performed using a time-of-flight (TOF) analyzer with electrospray ionization (ESI). Absorption spectra were recorded on an Evolution 201 UV/vis spectrometer with Thermo Insight software. Fluorescence spectra were collected on a Horiba Fluoromax-4 fluorometer with FluoroEssence software. Analyte solutions were prepared in HPLC grade water (Sigma-Aldrich), phosphate buffered saline (Thermo Fisher), fetal bovine serum (Sigma-Aldrich) or buffer B (575 mM NaCl, 37.5 mM NaH2PO4 and 0.75 mM EDTA in water, pH 7.5). All absorption and fluorescence spectra were collected using quartz cuvettes (1 mL, 1 cm path length; for emission and excitation spectra, slit width=3 nm).

[8] = meso linkage is not cleaved by biological amines or thiols; cited from earlier work
[9] = molecular target: T1, bovine serum albumin (BSA); test: Albumin binding, quenching of BSA tryptophan fluorescence
Protocol: FIG. 13. […] The relative fluorescence intensity at 335 nm was determined using the following equation, where F0 is the initial fluorescence intensity, F is the fluorescence intensity after each aliquot addition of dye, and the slope of the trend line (m) corresponds to Ka±SD.
Albumin Binding Measurements. Two separate sets of titration experiments were performed. The first set of titration experiments measured quenching of bovine serum albumin (BSA) tryptophan fluorescence as dye was added incrementally. […] After each aliquot addition, the solution was mixed and allowed to equilibrate for 5 min before spectral acquisition.

T1 sequence (P02769 25-607): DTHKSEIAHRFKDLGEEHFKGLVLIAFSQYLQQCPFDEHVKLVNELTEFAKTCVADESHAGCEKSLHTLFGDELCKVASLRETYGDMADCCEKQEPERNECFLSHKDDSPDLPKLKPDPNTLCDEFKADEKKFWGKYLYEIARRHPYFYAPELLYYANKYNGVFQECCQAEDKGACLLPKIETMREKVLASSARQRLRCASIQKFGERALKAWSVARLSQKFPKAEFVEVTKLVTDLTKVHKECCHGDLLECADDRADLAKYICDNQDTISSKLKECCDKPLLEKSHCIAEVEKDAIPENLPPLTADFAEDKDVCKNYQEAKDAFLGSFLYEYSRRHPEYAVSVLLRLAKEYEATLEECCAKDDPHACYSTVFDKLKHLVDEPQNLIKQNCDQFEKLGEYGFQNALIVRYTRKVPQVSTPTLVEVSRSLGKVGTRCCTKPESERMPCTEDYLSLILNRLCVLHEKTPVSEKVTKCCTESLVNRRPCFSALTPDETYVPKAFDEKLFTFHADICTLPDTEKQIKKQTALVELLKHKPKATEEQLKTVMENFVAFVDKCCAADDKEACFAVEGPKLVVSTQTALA

Brightness (fluorescence brightness = ε × QY) ([1]; PBS pH 7.4, error ±15%): 9,600
QY ([1]; PBS pH 7.4, relative to UL766, error ±10%): 0.097
Quantum yield ([1]; pH 7.4 PBS, relative to UL766, error ±10%): 9.7^[b] %
ϵmax for the monomer peak [2]: 111,000 M^−1 cm^−1
Storage of 1 mM stock solution in water [4]: forms a precipitate after 24 hr
k, rate constant of first-order decay ([5]; pH 7.4 PBS, 150 W Xenon lamp irradiation, 620 nm long-pass filter, 23° C., 1 μM dye): 0.00037 s⁻¹
Order of photostabilities ([5]; separate cuvettes, dye in PBS, Xenon lamp >620 nm): s775z>756z>UL766>ICG
Effect of BSA on dye fluorescence [6]: no effect on the dye fluorescence
SS (Stokes shift) ([7]; 2 μM BSA in pH 7.4 PBS): 18 nm
ε ([7]; 2 μM BSA in pH 7.4 PBS): 107,000 M^−1cm^−1
λabs max, aggregate (a) band ([7]; 2 μM BSA in pH 7.4 PBS): 681 (a)/ nm
λem max ([7]; 2 μM BSA in pH 7.4 PBS): 773 nm
λabs max ([7]; 2 μM BSA in pH 7.4 PBS): 755 (m) nm
SS (Stokes shift) ([7]; 100% FBS): 16 nm
ε ([7]; 100% FBS): 118,000 M^−1cm^−1
λabs max, aggregate (a) band ([7]; 100% FBS): 682 (a)/ nm
λem max ([7]; 100% FBS): 774 nm
λabs max ([7]; 100% FBS): 758 (m) nm
SS (Stokes shift) ([7]; H2O): 17 nm
ε ([7]; H2O): 56,000 M^−1cm^−1
λabs max, aggregate (a) band ([7]; H2O): 681 (a)/ nm
λem max ([7]; H2O): 773 nm
λabs max ([7]; H2O): 756 (m) nm
SS (Stokes shift) ([7]; PBS pH 7.4): 17 nm
λabs max, aggregate (a) band ([7]; PBS pH 7.4, room temperature): 681 (a)^[f] nm and 681 (a)/ nm
λem max ([7]; PBS pH 7.4, room temperature): 773 nm
λabs max ([7]; PBS pH 7.4, room temperature): 756 (m)^[f] nm and 756 (m) nm
Ka relative to Ka for BSA association with ICG [9]: about 40 times lower
Ka for BSA ([9]; BSA 2 μM, 37° C., tryptophan fluorescence quenching): 16000 M⁻¹
Dye/BSA affinity ([9]; tryptophan quenching titration): weak dye/BSA affinity
SMILES: CC1(C)C(/C=C/C2=C(c3ccc(C(=O)O)cc3)C(=C/C=C3/N(CCC[N+](C)(C)C)c4ccc(S(=O)(=O)O)cc4C3(C)C)/CCC2)=[N+](CCC[N+](C)(C)C)c2ccc(S(=O)(=O)O)cc21 [Dye 756z]
Aggregation state [3]: exists largely as non-fluorescent H-aggregates
ε ([7]; PBS pH 7.4, room temperature, monomer band): 99,000 (0.942)^[b] M^−1cm^−1 and 99,000 M^−1cm^−1
Stable to nucleophiles [8]: Yes
